Consider 23 compounds from patent US20260042763A1, “PE[…] POSITIVE […] THE TREATMENT OF IRRITABLE BOWEL SYNDROME AND OTHER AILMENTS OF THE PERIPHERAL NERVOUS SYSTEM” (The Johns Hopkins University, priority 2022, published 2026).

Read-outs that look alike come from different tables or passages of the source.

This experiment has as its target T1, human isoforms of GABAA (α3ß2γ2) receptors (Homo sapiens, UniProt P18507+P34903).
T1 construct: expressed in transfected cells
Put plainly: Potentiation of GABA-evoked currents at GABAA (α3β2γ2) receptors, automated patch-clamp (QPatch), Example B1. It counts as cell-based. To be noted: for Emax: Emax of potentiation, read-out: Max %. The protocol: The ability of compounds exemplified above to potentiate the effect of GABA on GABAA receptors (α3β2γ2) was determined using one or more of the methods described below.
Ltk cells stably expressing the human isoforms of GABAA (α3ß2γ2) receptors were used together with submaximal GABA concentrations to investigate the modulatory effects of the test items. Cells were incubated at 37° C. in a humidified atmosphere with 5% CO2 (rel. humidity about 95%). The cells were continuously maintained in and passaged in sterile culture flasks containing a 1:1 mixture of Dulbecco's modified eagle medium and nutrient mixture D-MEM/F-12 (1×, liquid, with L-Glutamine), supplemented with 10% fetal bovine serum and 1.0% Penicillin/Streptomycin solution. The complete medium as indicated above was supplemented with neomycin. In general, cells were passaged at a confluence of about 80 to 90%. For electrophysiological measurements cells were harvested at a confluence of about 80 to 90% from sterile culture flasks containing culture complete medium. Cells were transferred as suspension in PBS to the QPatch 16X or QPatch HTX system to the centrifuge/washer directly. Expression of GABA receptor was induced by adding Dexamethasone to the cells for 24 to 48 h before experimentation.
Modulatory effects of the compounds of this disclosure were investigated using cells stably transfected with GABA-activated channels of the GABAA (α3ß2γ2) subtype together with submaximal GABA concentrations. Expression of GABA receptor were induced by adding Dexamethasone to the cells for 24 to 48 h before experimentation. In general, cells were passaged at a confluence of about 80 to 90%. For electrophysiological measurements cells were harvested at a confluence of about 80 to 90% from sterile culture flasks containing culture complete medium. Cells were transferred as suspension in PBS to the QPatch 16X or QPatch HTX system to the centrifuge/washer directly. Cells were incubated at 37° C. in a humidified atmosphere with 5% CO2 (rel. humidity about 95%). The cells were continuously maintained in and passaged in sterile culture flasks containing a 1:1 mixture of Dulbecco's modified eagle medium and nutrient mixture D-MEM/F-12 (1×, liquid, with L-Glutamine), supplemented with 10% foetal bovine serum and 1.0% Penicillin/Streptomycin solution and neomycin. The 1× bath solution was made at least every 5 days out of a sterile 10× bath solution, which had been prepared prior to the experimental start of the present study and stored at 1° C. to 9° C. The final bath solution included Sodium Chloride 137 mM, Potassium Chloride 4 mM, Calcium Chloride 1.8 mM, Magnesium Chloride 1 mM, HEPES 10 mM, D-Glucose 10 mM, pH (NaOH) 7.4. The 1× intracellular solution was thawed every day and includes Potassium Chloride 130 mM, Magnesium Chloride 1 mM, Mg-ATP 5 mM, HEPES 10 mM, EGTA 5 Mm, pH (KOH) 7.2. Automated patch-clamping: Cells were transferred as suspension in serum-free medium to the QPatch HTX system and kept in the cell storage tank during experiments. All solutions applied to cells including the intracellular solution were maintained at room temperature (19° C. to 30° C.). After formation of a Gigaohm seal between the patch electrodes and transfected individual Ltk cells were ruptured to assure electrical access to the cell interior (whole-cell patch-configuration). Inward currents were measured upon application of 2.0 μM GABA to patch-clamped cells for 4 s. During the entire experiment the cells were voltage-clamped at a holding potential of −80 mV. For the analysis of test items, GABAA receptors were stimulated by 2.0 μM GABA and test item combinations described below. Thirty-second prewash steps with test items was performed in between two agonist applications. […]
For orientation: In patch-clamp work, channel activity is measured electrically.

Setting [1] is: Ltk cells expressing GABAA α3β2γ2, 2.0 μM GABA, whole-cell, holding potential −80 mV.

T1 sequence (P34903 29-492): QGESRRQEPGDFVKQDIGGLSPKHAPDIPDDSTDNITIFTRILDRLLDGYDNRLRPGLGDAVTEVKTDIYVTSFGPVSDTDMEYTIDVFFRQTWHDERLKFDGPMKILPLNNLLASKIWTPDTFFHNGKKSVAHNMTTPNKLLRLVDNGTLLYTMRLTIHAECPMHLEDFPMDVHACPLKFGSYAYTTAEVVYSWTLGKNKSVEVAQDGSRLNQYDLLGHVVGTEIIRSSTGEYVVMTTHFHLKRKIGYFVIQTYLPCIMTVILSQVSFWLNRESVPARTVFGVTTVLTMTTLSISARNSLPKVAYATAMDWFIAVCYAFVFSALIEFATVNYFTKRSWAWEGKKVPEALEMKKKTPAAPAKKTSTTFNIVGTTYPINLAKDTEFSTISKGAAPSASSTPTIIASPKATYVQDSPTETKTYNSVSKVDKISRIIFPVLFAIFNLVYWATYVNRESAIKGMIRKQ
T1 sequence (P47870 25-512 partner limits assumed): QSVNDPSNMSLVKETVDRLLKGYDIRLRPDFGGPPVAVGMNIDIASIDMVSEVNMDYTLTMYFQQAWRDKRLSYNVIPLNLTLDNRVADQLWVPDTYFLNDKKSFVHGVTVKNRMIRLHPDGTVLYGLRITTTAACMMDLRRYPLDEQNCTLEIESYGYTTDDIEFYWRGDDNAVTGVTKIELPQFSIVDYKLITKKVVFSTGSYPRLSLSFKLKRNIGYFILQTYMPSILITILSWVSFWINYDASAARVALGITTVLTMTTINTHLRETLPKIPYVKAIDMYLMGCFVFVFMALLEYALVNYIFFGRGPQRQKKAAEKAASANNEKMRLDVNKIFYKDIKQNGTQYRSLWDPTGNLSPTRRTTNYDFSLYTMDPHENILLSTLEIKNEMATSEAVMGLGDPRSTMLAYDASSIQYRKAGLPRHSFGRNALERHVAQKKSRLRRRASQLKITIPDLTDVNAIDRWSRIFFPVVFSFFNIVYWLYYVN
T1 sequence (P18507 40-475): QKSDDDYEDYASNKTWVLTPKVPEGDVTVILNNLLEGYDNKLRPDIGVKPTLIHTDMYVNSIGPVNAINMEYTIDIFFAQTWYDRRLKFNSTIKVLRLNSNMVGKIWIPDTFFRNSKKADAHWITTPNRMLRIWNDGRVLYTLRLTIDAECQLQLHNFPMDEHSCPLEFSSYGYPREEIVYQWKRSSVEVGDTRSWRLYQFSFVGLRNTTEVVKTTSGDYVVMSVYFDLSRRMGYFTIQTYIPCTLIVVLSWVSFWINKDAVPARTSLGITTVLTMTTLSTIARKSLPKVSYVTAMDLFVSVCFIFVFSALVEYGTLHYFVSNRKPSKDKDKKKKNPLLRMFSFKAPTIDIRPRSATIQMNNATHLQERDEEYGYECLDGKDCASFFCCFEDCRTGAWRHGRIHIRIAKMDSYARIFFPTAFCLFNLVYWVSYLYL

Take `O=C(O)c1cn2c(n1)CN=C(c1ccccc1Cl)c1cc(F)ccc1-2` [Compound 223]: the EC50 is below 50 nM. Under setting [1], the Emax was below 50%. As for `O=C(O)c1cn2c(n1)CN=C(c1ccccc1F)c1cccc(Cl)c1-2` [Compound 224], the half-maximal effective concentration (EC50) is above 100 nM. Besides, the Emax under setting [1] is below 50%. With `O=C(O)c1cn2c(n1)CN=C(c1ccccc1F)c1ccc(Cl)cc1-2` [Compound 225, 9-chloro-6-(2-fluorophenyl)-4H-imidazo[1,2-a][1,4]benzodiazepine-2-carboxylic acid], the Emax under setting [1] is below 50%. On to `Cc1ccc2c(c1)C(c1ccccc1F)=NCc1nc(C(=O)O)cn1-2` [Compound 226, 6-(2-fluorophenyl)-8-methyl-4H-imidazo[1,2-a][1,4]benzodiazepine-2-carboxylic acid], for which the concentration for a half-maximal effect (EC50) is below 50 nM. Besides, the Emax under setting [1] is above 100%.

Turning to `O=C(O)c1cn2c(n1)C(O)N=C(c1ccccc1F)c1cc(Cl)ccc1-2` (stereo not shown) [Compound 227, 8-chloro-6-(2-fluorophenyl)-4-hydroxy-4H-benzo[f]imidazo[1,2-a][1,4]diazepine-2-carboxylic acid], under setting [1], the Emax was in the range of 50 to 100%.

For `CN(C)CCNC(=O)c1cn2c(n1)CN=C(c1ccccc1F)c1cc(Cl)ccc1-2` [Compound 228, 8-chloro-N-[2-(dimethylamino)ethyl]-6-(2-fluorophenyl)-4H-imidazo[1,2-a][1,4]benzodiazepine-2-carboxamide], the EC50 is below 50 nM. In addition, under setting [1], the Emax fell in the range of 50 to 100%.

`COCCOCCOCCOCCOCCOCCOCCOCCNC(=O)c1cn2c(n1)CN=C(c1ccccc1F)c1cc(Cl)ccc1-2` [Compound 229, 8-chloro-6-(2-fluorophenyl)-N-[2-[2-[2-[2-[2-[2-[2-(2-methoxyethoxy)ethoxy]ethoxy]ethoxy]ethoxy]ethoxy]ethoxy]ethyl]-4H-imidazo[1,2-a][1,4]benzodiazepine-2-carboxamide]: the concentration for a half-maximal effect (EC50) is above 100 nM. The Emax under setting [1] was above 100%. For `NC(=O)[C@H](O)c1cn2c(n1)CN=C(c1ccccc1F)c1cc(Cl)ccc1-2` [Compound 231, (2R)-2-[12-chloro-9-(2-fluorophenyl)-2,5,8-triazatricyclo[8.4.0.0^2,6]tetradeca-1 (10),3,5,8,11,13-hexaen-4-yl]-2-hydroxyacetamide], the EC50 is below 50 nM. Also, the Emax under setting [1] was above 100%. The matching figures for `NC(=O)C(NCc1ccccc1)c1cn2c(n1)CN=C(c1ccccc1F)c1cc(Cl)ccc1-2` (stereo not shown) [Compound 232, 2-(Benzylamino)-2-[12-chloro-9-(2-fluorophenyl)-2,5,8-triazatricyclo[8.4.0.0^2,6]tetradeca-1 (10),3,5,8,11,13-hexaen-4-yl]acetamide]: 50 to 100 nM and 50 to 100%. As to `O=C(O)Cc1cn2c(n1)CN=C(c1ccccc1F)c1cc(Cl)ccc1-2` [Compound 233, 2-(8-chloro-6-(2-fluorophenyl)-4H-benzo[f]imidazo[1,2-a][1,4]diazepin-2-yl) acetic acid], the concentration for a half-maximal effect (EC50) was below 50 nM. The Emax under setting [1] was above 100%.

As to `O=C(O[C@@H]1O[C@H](C(=O)O)[C@@H](O)[C@H](O)[C@H]1O)c1cn2c(n1)CN=C(c1ccccc1F)c1cc(Cl)ccc1-2` [Compound 234, (2S,3S,4S,5R,6S)-6-((8-chloro-6-(2-fluorophenyl)-4H-benzo[f]imidazo[1,2-a][1,4]diazepine-2-carbonyl)oxy)-3,4,5-trihydroxytetrahydro-2H-pyran-2-carboxylic acid], the Emax under setting [1] was 50 to 100%. Also, the EC50 (Ltk cells expressing GABAA α3β2γ2, 2.0 μM GABA, whole-cell, holding potential −80 mV, read-out: EC50) was below 50 nM. Take `O=C(O)c1nc2n(c1Cl)-c1ccc(Cl)cc1C(c1ccccc1F)=NC2` [Compound 235]: the 50% effective concentration (EC50) is below 50 nM. For the same compound, the Emax under setting [1] was above 100%. The matching figures for `O=C(O)c1cn2c(n1)C[N+]([O-])=C(c1ccccc1F)c1cc(Cl)ccc1-2` [Compound 236, 2-carboxy-8-chloro-6-(2-fluorophenyl)-4H-514-benzo[e]imidazo[2,1-c][1,4]diazepin-5-olate]: above 100 nM and 50 to 100%. Regarding `NC(=O)c1cn2c(n1)CN=C(c1ccccc1F)c1cc(Cl)ccc1-2` [Compound 238, 8-chloro-6-(2-fluorophenyl)-4H-imidazo[1,2-a][1,4] benzodiazepine-2-carboxamide], the EC50 is below 50 nM. Further, under setting [1], the Emax is above 100%. As to `O=C(O)c1nc2n(c1-c1ccccc1)-c1ccc(Cl)cc1C(c1ccccc1F)=NC2` [Compound 239, 8-chloro-6-(2-fluorophenyl)-1-phenyl-4H-imidazo[1,2-a][1,4]benzodiaze pine-2-carboxylic acid], the concentration giving a half-maximal response (EC50) was above 100 nM. Besides, the Emax under setting [1] is above 100%. On to `CNC(=O)c1cn2c(n1)CN=C(c1ccccc1F)c1cc(Cl)ccc1-2` [Compound 240, 8-chloro-6-(2-fluorophenyl)-N-methyl-4H-imidazo[1,2-a][1,4]benzodiazepine-2-carboxamide], for which the EC50 was below 50 nM. In addition, the Emax under setting [1] was above 100%. Take `CN(C)C(=O)c1cn2c(n1)CN=C(c1ccccc1F)c1cc(Cl)ccc1-2` [Compound 241, 8-chloro-6-(2-fluorophenyl)-N,N-dimethyl-4H-imidazo[1,2-a][1,4]benzodiazepine-2-carboxamide]: the concentration giving a half-maximal response (EC50) was below 50 nM. Under setting [1], the Emax is above 100%. On the same counts, the results for `O=C(O)c1nc2n(c1CN1CCC1)-c1ccc(Cl)cc1C(c1ccccc1F)=NC2` [Compound 243, 1-(azetidin-1-ylmethyl)-8-chloro-6-(2-fluorophenyl)-4H-benzo[f]imidazo[1,2-a][1,4]diazepine-2-carboxylic acid] are above 100 nM and above 100%. The matching figures for `O=C(O)c1nc2n(c1CNC1CCCCC1)-c1ccc(Cl)cc1C(c1ccccc1F)=NC2` [Compound 244, 8-chloro-1-((cyclohexylamino)methyl)-6-(2-fluorophenyl)-4H-benzo[f]imidazo[1,2-a][1,4]diazepine-2-carboxylic acid]: above 100 nM and above 100%. As for `O=C(O)c1nc2n(c1CN1CCOCC1)-c1ccc(Cl)cc1C(c1ccccc1F)=NC2` [Compound 245, 8-chloro-6-(2-fluorophenyl)-1-(morpholinomethyl)-4H-benzo[f]imidazo[1,2-a] [1,4]diazepine-2-carboxylic acid], the concentration giving a half-maximal response (EC50) was above 100 nM. Moreover, under setting [1], the Emax is above 100%. Take `O=C(O)c1nc2n(c1CN1CCCCC1)-c1ccc(Cl)cc1C(c1ccccc1F)=NC2` [Compound 246, 8-chloro-6-(2-fluorophenyl)-1-(piperidin-1-ylmethyl)-4H-benzo[f]imidazo[1,2-a][1,4]diazepine-2-carboxylic acid]: the EC50 was above 100 nM. Further, the Emax under setting [1] lay in the range of 50 to 100%. Consider `O=C(O)c1nc2n(c1CN1CCCC1)-c1ccc(Cl)cc1C(c1ccccc1F)=NC2` [Compound 247, 8-chloro-6-(2-fluorophenyl)-1-(pyrrolidin-1-ylmethyl)-4H-benzo[f]imidazo[1,2-a][1,4]diazepine-2-carboxylic acid], for which the EC50 was above 100 nM. In addition, the Emax under setting [1] fell in the range of 50 to 100%. Regarding `Nc1c(C(=O)O)nc2n1-c1ccc(Cl)cc1C(c1ccccc1F)=NC2` [Compound 249, 3-Amino-12-chloro-9-(2-fluorophenyl)-2,5,8-triazatricyclo[8.4.0.0^2,6]tetradeca-1 (10),3,5,8,11,13-hexaene-4-carboxylic acid], under setting [1], the Emax is above 100%.

Usually EC50 stands for the concentration at which the effect is half-maximal.
